Test results taken from the OPERA property sets (Mansouri et al. 2018).

| SMILES | logP |
| --- | --- |
| CCNC12c3ccccc3CC1CCCC2C (stereo unspecified) | 3.8 |
| CNC12CCCCC1Cc1ccccc12 (stereo unspecified) | 3.38 |
| CNCC1CCC2(NC)c3ccccc3CC2C1 (stereo unspecified) | 2.48 |
| NC12CCCC1Cc1ccccc12 (stereo unspecified) | 2.58 |
| CNC12CCCCC1c1ccccc1C2 (stereo unspecified) | 3.43 |
| CNC12CCC(CN)CC1Cc1ccccc12 (stereo unspecified) | 1.84 |
| CNC12c3ccccc3CC1CCCC2C (stereo unspecified) | 3.44 |
| C=C1c2ccccc2C2(NC)CCCCC12 (stereo unspecified) | 3.79 |

Next, values leading:

| logP | SMILES |
| --- | --- |
| 3.77 | CNC12CCCCCC1Cc1ccccc12 (stereo unspecified) |
| 3.51 | CNC12CCCCC1Cc1cc(OC)ccc12 (stereo unspecified) |
| 3.54 | CNC12CCCCC1Cc1ccc(OC)cc12 (stereo unspecified) |
